Reference: EP0008556A1, “Bis 7H pyridocarbazole derivatives and pharmaceutical compositions containing them” (ANVAR Agence Nationale de Valorisation de la Recherche, priority 1978, dated 1980)

Tests used:
Type in all cases: in vivo, souris
leucémie L1210 = assay: Therapeutic effect on L1210 leukemia in mice, single intraperitoneal injection 24 h after intraperitoneal tumour inoculation; conditions: for Augmentation survie traitées/contrôle x 100 / Survie moyenne en jours des souris traitées ± erreur standard. / % de cellules tumorales tuées par le traitement: single i.p. injection, inoculum 10^5 L1210 cells; for % de cellules tumorales tuées par le traitement: calculated by Skipper method; for Nombre d'animaux guéris: cured = survival more than 45 days after inoculation; for index chimiothérapeutique: leucémie L1210, read from Table VI; for fraction des cellules survivantes N/No après traitement en fonction de la dose (fraction de la dose infra-létale DLo): figure 2, comparison with dérivé 34 (DIE)
Text: Afin de tester l'activité antitumorale des composés décrits plus haut, on a utilisé en premier lieu des leucémies murines P388 et L1210. La leucémie P388 est considérée comme très sensible et permet une première sélection. La leucémie L1210 est plus résistante et plus sélective. Une substance ayant une grande activité sur la leucémie L1210 a une grande chance d'être active en clinique humaine (J.M. VENDITTI, Relevance of transplantable animal tumor systems to the Selection of new agents for clinical trial in pharmacologi- cal basis of cancer chemotherapy. The University of Texas ed. Williams and Wilkins, publ. 1975, Baltimore USA) .
D'autre part, la tumeur expérimentale qu'est la leucémie L1210 de la souris est en effet couramment utilisée pour l'évaluation de tous les composés antitumoraux actuellement mis en oeuvre en thérapeutique humaine, ainsi qu'il est décrit, par exemple par C.C. ZUBROD dans Proc. Nat. Acad. Sci. USA 69, 1972, p 1042-1047. Le système tumoral ainsi constitué expérimentalement permet une évaluation quantitative très précise de l'activité du composé testé, et, par conséquent aussi, une comparaison objective entre les activités respectives de différents composés, par exemple selon les méthodes décrites par R.E. SKIPPER, F.M. SCHABEL Jr. et W.S. WILCOX dans Cancer Chemother. Rep., 35, 1964, p 1-111 et 45, 1965, p 5-28.
(§1) En pratique, on a utilisé des souris ayant reçu par voie intrapéritonéale un inoculum de cellules de leucémie L1210 et ayant été, pour la moitié d'entre elles, soumises 24 heures après ladite inoculation tumorale à une injection intrapéritonéale d'une dose unique de l'un des composés à tester : l'autre moitié des souris a reçu une injection d'un volume identique d'un solvant inactif et servait de série témoin. On a réparti les souris au hasard dans chaque série expérimentale. Une première expérimentation de routine a permis de déterminer la mortalité par toxicité et de fixer ainsi les doses infra-létales.
Conformément à la convention en usage dans ce domaine, on considérait comme guéris les animaux qui survivaient plus de 45 jours après l'inoculation de cellules tumorales.
On a ainsi pu déterminer la mortalité par toxicité sous l'effet d'une injection unique de l'un des composés à différentes doses (doses infra-létales, DL 50 et DL 100) et évaluer le taux de survie du groupe d'animaux auxquels on n'avait injecté qu'une dose infra-létale d'un composé selon l'invention.
On a calculé le taux de survie à partir d'une analyse statistique des résultats expérimentaux, par comparaison avec les résultats obtenus avec la série témoin, selon les méthodes bien connues de Mann-Whitey et de Wilcoxon; le pourcentage de cellules leucémiques tuées par le traitement réalisé était calculé par la méthode décrite par H.E. SKIPPER et coll. dans les articles cités plus haut, en prenant pour base, suivant le cas, soit l'augmentation de la survie moyenne en l'absence de survivants, soit le pourcentage de survivants.
Pour l'évaluation de l'activité thérapeutique des composés selon l'invention, on a exprimé les doses dudit composé en les rapportant à la dose infra-létale […], que l'on a posée égale à 1. Cette dose infra-létale s'est en effet avérée plus facile à déterminer pour les composés de l'invention que la DL 10, dont elle est d'ailleurs très voisine et qui est habituellement prise comme référence pour l'évaluation de l'activité thérapeutique de composés à effet antitumoral (voir H.E. SKIPPER et coll., ouvrages cités).

mélanome B 16 = assay: Survival of mice bearing B 16 melanoma, identical protocol; conditions: same doses
Text: as §1
(§2) En outre, ces composés présentent une forte activité sur le mélanome B 16 et la tumeur de Lewis, pour les mêmes doses, le protocole étant identique. A titre d'exemple, sur le mélanome B 16, le dérivé 41 augmente de 15 jours la survie des souris traitées; sur la tumeur de Lewis, l'augmentation de survie induite pour ce même dérivé est de 8 jours avec un survivant.

tumeur de Lewis = assay: Survival of mice bearing Lewis tumour, identical protocol; conditions: same doses
Text: as §1, §2

[1] = dose 0.02 of the infra-lethal dose
[2] = dose 0.1 of the infra-lethal dose
[3] = dose 0.2 of the infra-lethal dose
[4] = dose 0.25 of the infra-lethal dose
[5] = dose 0.3 of the infra-lethal dose
[6] = dose 0.4 of the infra-lethal dose
[7] = dose 1/5 of the infra-lethal dose
[8] = dose 0.04 of the infra-lethal dose
[9] = dose 0.8 of the infra-lethal dose

Structure (SMILES) | Augmentation survie traitées/contrôle x 100 (leucémie L1210; [1]) | Survie moyenne en jours des souris traitées ± erreur standard. (leucémie L1210; [1]) | % de cellules tumorales tuées par le traitement (leucémie L1210; [1]) | Augmentation survie traitées/contrôle x 100 (leucémie L1210; [3]) | Survie moyenne en jours des souris traitées ± erreur standard. (leucémie L1210; [3]) | % de cellules tumorales tuées par le traitement (leucémie L1210; [3]) | Augmentation survie traitées/contrôle x 100 (leucémie L1210; [6]) | Survie moyenne en jours des souris traitées ± erreur standard. (leucémie L1210; [6]) | % de cellules tumorales tuées par le traitement (leucémie L1210; [6]) | % des cellules leucémiques tuées (leucémie L1210; [7]) | index chimiothérapeutique (leucémie L1210) | fraction des cellules survivantes N/No après traitement en fonction de la dose (fraction de la dose infra-létale DLo) (leucémie L1210) | also measured
COc1ccc2[nH]c3ccc4cc[n+](CCN5CCC(C6CCN(CC[n+]7ccc8ccc9[nH]c%10ccc(OC)cc%10c9c8c7)CC6)CC5)cc4c3c2c1 [Dérivé 34, Dichlorurede 1'1'-bis 2-(2-méthoxy-10,7-H-pyrido[4,3-c]carbazolium)éthy14,4' bispipéridine] | 128 | 12.2 ± 0.9 jours | 98% | 144 | 14.3 ± 2.6 jours | 99.97% | 182 | 18.1 ± 4.5 jours | 99.999% | 99,97% | extrêmement élevé | – | Nombre d'animaux guéris (leucémie L1210; [2]): 1/15; Augmentation survie traitées/contrôle x 100 (leucémie L1210; [2]): 137; Survie moyenne en jours des souris traitées ± erreur standard. (leucémie L1210; [2]): 13.6 ± 2.9 jours; % de cellules tumorales tuées par le traitement (leucémie L1210; [2]): 94.8%; Augmentation survie traitées/contrôle x 100 (leucémie L1210; [4]): 216; Survie moyenne en jours des souris traitées ± erreur standard. (leucémie L1210; [4]): 18.6 ± 4.5 jours; % de cellules tumorales tuées par le traitement (leucémie L1210; [4]): 99.999%; Augmentation survie traitées/contrôle x 100 (leucémie L1210; [5]): 191; Survie moyenne en jours des souris traitées ± erreur standard. (leucémie L1210; [5]): 17.6 ± 4.5 jours; % de cellules tumorales tuées par le traitement (leucémie L1210; [5]): 99.999%
Oc1ccc2[nH]c3ccc4cc[n+](CCN5CCC(C6CCN(CC[n+]7ccc8ccc9[nH]c%10ccc(O)cc%10c9c8c7)CC6)CC5)cc4c3c2c1 [Dérivé 40] | 111 | 9.4 ± 1.2 jours | 94% | 153 | 12.9 ± 1.5 jours | 99.47% | 167 | 13.2 ± 1.9 jours | 99.994% | 99,97% | extrêmement élevé | – | –
O=NN(CCCl)C(=O)NCCCl [bischloréthylnitrosourée (BCNU), bischloréthylnitrosourée, reference compound] | – | – | – | – | – | – | – | – | – | – | – | ne sont actives qu'à des doses bien supérieures à celles du dérivé 34 | –
COc1ccc2c(c1)c1c3c[n+](CCN4CCC(C5CCN(CC[n+]6ccc7ccc8c(c7c6)c6cc(OC)ccc6n8C)CC5)CC4)ccc3ccc1n2C [Dérivé 41, Dichlorurede 1,1' bis 2-(2-méthyl-7-méthoxy-10,7-H-pyrido [4,3-c]carbazolium) éthyl 4,4' bispipéridine] | – | – | – | – | – | – | 140 | 11.8 ± 0.9 jours | 99.8% | – | extrêmement élevé | – | augmentation de la survie des souris traitées (mélanome B 16): 15 jours; augmentation de survie (tumeur de Lewis): 8 jours; survivant (tumeur de Lewis): un survivant; Augmentation survie traitées/contrôle x 100 (leucémie L1210; [8]): 143; Survie moyenne en jours des souris traitées ± erreur standard. (leucémie L1210; [8]): 11.9 ± 1.2 jours; % de cellules tumorales tuées par le traitement (leucémie L1210; [8]): 99.8%; Nombre d'animaux guéris (leucémie L1210; [6]): 1/15; Augmentation survie traitées/contrôle x 100 (leucémie L1210; [9]): 155; Survie moyenne en jours des souris traitées ± erreur standard. (leucémie L1210; [9]): 12.9 ± 1.9 jours; % de cellules tumorales tuées par le traitement (leucémie L1210; [9]): 99.97%; % des cellules leucémiques tuées (leucémie L1210; dose 1/15 of the infra-lethal dose): 91,8%
O=P1(N(CCCl)CCCl)NCCCO1 (stereo not shown) [cyclophosphamide, reference compound] | – | – | – | – | – | – | – | – | – | – | – | ne sont actives qu'à des doses bien supérieures à celles du dérivé 34 | –
